Non-standard residues stand in square brackets, D forms with d. Residues, ends and D or L forms follow the SMILES beside them. NMeE = CN[C@@H](CCC(=O)O)C(=O)O; NMeD = CN[C@@H](CC(=O)O)C(=O)O
Target: Sushi domains (SD1/2) protein
Assay: Fluorescence polarization (FP) competition assay with AJAP-1probe, calculated Ki
Format: binding
Conditions: Table 4, truncation and elongation scans of APP epitope; read-out: Ki (nM) mean ± SEM
How it was run: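 Competition against 25 nM TAMRA-labelled peptide probe binding SD1/2, in PBS pH 7.4 with 1% BSA at rt, read at 530/580 nm. IC50 from sigmoidal dose-response fits, at least triplicate; Ki calculated from IC50 using probe Kd from saturation binding.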

Point of comparison: CC(=O)N[C@@H](CCC(=O)O)C(=O)N[C@@H](CCC(=O)O)C(=O)N[C@@H](CC(=O)O)C(=O)N[C@@H](CC(=O)O)C(=O)N[C@@H](CO)C(=O)N[C@@H](CC(=O)O)C(=O)N[C@H](C(=O)N[C@@H](Cc1c[nH]c2ccccc12)C(=O)N[C@@H](Cc1c[nH]c2ccccc12)C(=O)NCC(=O)NCC(=O)N[C@@H](C)C(=O)N[C@@H](CC(=O)O)C(=O)N[C@H](C(=O)N[C@@H](CC(=O)O)C(=O)N[C@@H](Cc1ccc(O)cc1)C(=O)N[C@@H](C)C(=O)N[C@@H](CC(=O)O)C(=O)NCC(=O)NCC(=O)N[C@@H](CCC(=O)O)C(=O)N[C@@H](CC(=O)O)C(=O)N[C@@H](CCCCN)C(N)=O)[C@@H](C)O)C(C)C (Ac-EEDDSDVWWGGADTDYADGGEDK-NH2), Ki 392 ± 14 nM. Against it:
- CC(=O)N[C@@H](CCC(=O)O)C(=O)N[C@@H](CCC(=O)O)C(=O)N[C@@H](CC(=O)O)C(=O)N[C@@H](CC(=O)O)C(=O)N[C@@H](CO)C(=O)N[C@@H](CC(=O)O)C(=O)N[C@H](C(=O)N[C@@H](Cc1c[nH]c2ccccc12)C(=O)N[C@@H](Cc1c[nH]c2ccccc12)C(=O)NCC(=O)NCC(=O)N[C@@H](C)C(=O)N[C@@H](CC(=O)O)C(=O)N[C@H](C(=O)N[C@@H](CC(=O)O)C(=O)N[C@@H](Cc1ccc(O)cc1)C(=O)N[C@@H](C)C(=O)N[C@@H](CC(=O)O)C(=O)NCC(=O)NCC(=O)N[C@@H](CCC(=O)O)C(=O)N[C@@H](CC(=O)O)C(N)=O)[C@@H](C)O)C(C)C (Ac-EEDDSDVWWGGADTDYADGGED-NH2) — within 1.5-fold, 356 ± 11 nM

Same assay, conditions: Table 8, Ala-, D-amino acids and N-methylation scans of AJAP-1WT; read-out: Ki (nM) mean ± SEM

Point of comparison: CC[C@H](C)[C@H](NC(=O)[C@H](Cc1ccccc1)NC(=O)[C@H](CCC(=O)O)NC(=O)[C@@H](NC(=O)[C@H](CCC(=O)O)NC(C)=O)[C@@H](C)O)C(=O)N[C@@H](C)C(=O)N[C@@H](Cc1c[nH]c2ccccc12)C(=O)NCC(=O)N1CCC[C@H]1C(=O)N[C@H](C(=O)NCC(=O)N(C)[C@@H](CC(=O)O)C(=O)N[C@@H](CCC(=O)O)C(=O)N[C@@H](CC(=O)O)C(N)=O)[C@@H](C)O (Ac-ETEFIAWGPTG[NMeD]ED-NH2), Ki 45 ± 2 nM. Against it:
- CC[C@H](C)[C@H](NC(=O)[C@H](Cc1ccccc1)NC(=O)[C@H](CCC(=O)O)NC(=O)[C@@H](NC(=O)[C@H](CCC(=O)O)NC(C)=O)[C@@H](C)O)C(=O)N[C@@H](C)C(=O)N[C@@H](Cc1c[nH]c2ccccc12)C(=O)NCC(=O)N1CCC[C@H]1C(=O)N[C@H](C(=O)NCC(=O)N[C@@H](CC(=O)O)C(=O)N[C@@H](C)C(=O)N[C@@H](CC(=O)O)C(N)=O)[C@@H](C)O (Ac-ETEFIAWGPTGDAD-NH2) — within 1.5-fold, 38 ± 1 nM
- CC[C@H](C)[C@H](NC(=O)[C@H](Cc1ccccc1)NC(=O)[C@H](CCC(=O)O)NC(=O)[C@@H](NC(=O)[C@H](CCC(=O)O)NC(C)=O)[C@@H](C)O)C(=O)N[C@@H](C)C(=O)N[C@@H](Cc1c[nH]c2ccccc12)C(=O)NCC(=O)N1CCC[C@H]1C(=O)N[C@H](C(=O)NCC(=O)N[C@@H](CC(=O)O)C(=O)N[C@@H](CCC(=O)O)C(=O)N[C@@H](C)C(N)=O)[C@@H](C)O (Ac-ETEFIAWGPTGDEA-NH2) — within error, 44 ± 1 nM
- CC[C@H](C)[C@H](NC(=O)[C@H](Cc1ccccc1)NC(=O)[C@H](CCC(=O)O)NC(=O)[C@@H](NC(=O)[C@H](CCC(=O)O)NC(C)=O)[C@@H](C)O)C(=O)N[C@@H](C)C(=O)N[C@@H](Cc1c[nH]c2ccccc12)C(=O)NCC(=O)N1CCC[C@H]1C(=O)N[C@H](C(=O)NCC(=O)N[C@@H](CC(=O)O)C(=O)N[C@@H](CCC(=O)O)C(=O)N(C)[C@@H](CC(=O)O)C(N)=O)[C@@H](C)O (Ac-ETEFIAWGPTGDE[NMeD]-NH2) — 1.6-fold lower, 29 ± 1 nM
- CC[C@H](C)[C@H](NC(=O)[C@H](Cc1ccccc1)NC(=O)[C@H](CCC(=O)O)NC(=O)[C@@H](NC(=O)[C@H](CCC(=O)O)NC(C)=O)[C@@H](C)O)C(=O)N[C@@H](C)C(=O)N[C@@H](Cc1c[nH]c2ccccc12)C(=O)NCC(=O)N1CCC[C@H]1C(=O)N[C@H](C(=O)NCC(=O)N[C@@H](CC(=O)O)C(=O)N(C)[C@@H](CCC(=O)O)C(=O)N[C@@H](CC(=O)O)C(N)=O)[C@@H](C)O (Ac-ETEFIAWGPTGD[NMeE]D-NH2) — within 1.5-fold, 31 ± 1 nM

Same assay, conditions: Table 11, deep mutational scanning validation variants of AJAP-1WT; read-out: Ki (nM) mean ± SEM

Point of comparison: CC[C@H](C)[C@H](NC(=O)[C@H](Cc1ccccc1)NC(=O)[C@H](CCC(=O)O)NC(=O)[C@@H](NC(=O)[C@H](CCC(=O)O)NC(C)=O)[C@@H](C)O)C(=O)N[C@@H](C)C(=O)N[C@@H](Cc1c[nH]c2ccccc12)C(=O)NCC(=O)N1CCC[C@H]1C(=O)N[C@H](C(=O)NCC(=O)N[C@@H](CC(=O)O)C(=O)N[C@@H](CCC(=O)O)C(=O)N1CCC[C@H]1C(N)=O)[C@@H](C)O (Ac-ETEFIAWGPTGDEP-NH2), Ki 41 ± 2 nM. Against it:
- CC[C@H](C)[C@H](NC(=O)[C@H](Cc1ccccc1)NC(=O)[C@H](CCC(=O)O)NC(=O)[C@@H](NC(=O)[C@H](CCC(=O)O)NC(C)=O)[C@@H](C)O)C(=O)N[C@@H](C)C(=O)N[C@@H](Cc1c[nH]c2ccccc12)C(=O)NCC(=O)N1CCC[C@H]1C(=O)N[C@H](C(=O)NCC(=O)N[C@@H](CC(=O)O)C(=O)N[C@@H](CC(=O)O)C(=O)N[C@@H](CC(=O)O)C(N)=O)[C@@H](C)O (Ac-ETEFIAWGPTGDDD-NH2) — 1.5-fold lower, 27 ± 2 nM
- CC[C@H](C)[C@H](NC(=O)[C@H](Cc1ccccc1)NC(=O)[C@H](CCC(=O)O)NC(=O)[C@@H](NC(=O)[C@H](CCC(=O)O)NC(C)=O)[C@@H](C)O)C(=O)N[C@@H](C)C(=O)N[C@@H](Cc1c[nH]c2ccccc12)C(=O)NCC(=O)N1CCC[C@H]1C(=O)N[C@H](C(=O)NCC(=O)N[C@@H](CC(=O)O)C(=O)N[C@@H](CCC(=O)O)C(=O)N[C@@H](Cc1ccccc1)C(N)=O)[C@@H](C)O (Ac-ETEFIAWGPTGDEF-NH2) — within 1.5-fold, 48 ± 1 nM
- CC[C@H](C)[C@H](NC(=O)[C@H](Cc1ccccc1)NC(=O)[C@H](CCC(=O)O)NC(=O)[C@@H](NC(=O)[C@H](CCC(=O)O)NC(C)=O)[C@@H](C)O)C(=O)N[C@@H](C)C(=O)N[C@@H](Cc1c[nH]c2ccccc12)C(=O)NCC(=O)N1CCC[C@H]1C(=O)N[C@H](C(=O)NCC(=O)N[C@@H](CC(=O)O)C(=O)N[C@@H](CCC(=O)O)C(=O)N[C@@H](CC(N)=O)C(N)=O)[C@@H](C)O (Ac-ETEFIAWGPTGDEN-NH2) — within error, 43 ± 2 nM
- CC[C@H](C)[C@H](NC(=O)[C@H](Cc1ccccc1)NC(=O)[C@H](CCC(=O)O)NC(=O)[C@@H](NC(=O)[C@H](CCC(=O)O)NC(C)=O)[C@@H](C)O)C(=O)N[C@@H](C)C(=O)N[C@@H](Cc1c[nH]c2ccccc12)C(=O)NCC(=O)N1CCC[C@H]1C(=O)N[C@H](C(=O)NCC(=O)N[C@@H](CC(=O)O)C(=O)N[C@@H](CCC(=O)O)C(=O)N[C@@H](CCC(N)=O)C(N)=O)[C@@H](C)O (Ac-ETEFIAWGPTGDEQ-NH2) — within error, 37 ± 2 nM
- CC[C@H](C)[C@H](NC(=O)[C@H](Cc1ccccc1)NC(=O)[C@H](CCC(=O)O)NC(=O)[C@@H](NC(=O)[C@H](CCC(=O)O)NC(C)=O)[C@@H](C)O)C(=O)N[C@@H](C)C(=O)N[C@@H](Cc1c[nH]c2ccccc12)C(=O)NCC(=O)N1CCC[C@H]1C(=O)N[C@H](C(=O)NCC(=O)N[C@@H](CC(=O)O)C(=O)N[C@@H](CCC(=O)O)C(=O)N[C@H](C(N)=O)C(C)C)[C@@H](C)O (Ac-ETEFIAWGPTGDEV-NH2) — within error, 40 ± 2 nM
- CC[C@H](C)[C@H](NC(=O)[C@H](Cc1ccccc1)NC(=O)[C@H](CCC(=O)O)NC(=O)[C@@H](NC(=O)[C@H](CCC(=O)O)NC(C)=O)[C@@H](C)O)C(=O)N[C@@H](C)C(=O)N[C@@H](Cc1c[nH]c2ccccc12)C(=O)NCC(=O)N1CCC[C@H]1C(=O)N[C@H](C(=O)NCC(=O)N[C@@H](CC(=O)O)C(=O)N[C@@H](CCC(=O)O)C(=O)N[C@@H](Cc1c[nH]c2ccccc12)C(N)=O)[C@@H](C)O (Ac-ETEFIAWGPTGDEW-NH2) — within 1.5-fold, 54 ± 2 nM
- CC[C@H](C)[C@H](NC(=O)[C@H](Cc1ccccc1)NC(=O)[C@H](CCC(=O)O)NC(=O)[C@@H](NC(=O)[C@H](CCC(=O)O)NC(C)=O)[C@@H](C)O)C(=O)N[C@@H](C)C(=O)N[C@@H](Cc1c[nH]c2ccccc12)C(=O)NCC(=O)N1CCC[C@H]1C(=O)N[C@H](C(=O)NCC(=O)N[C@@H](CC(=O)O)C(=O)N[C@@H](Cc1ccccc1)C(=O)N[C@@H](CC(=O)O)C(N)=O)[C@@H](C)O (Ac-ETEFIAWGPTGDFD-NH2) — the same, 41 ± 2 nM
- CC[C@H](C)[C@H](NC(=O)[C@H](Cc1ccccc1)NC(=O)[C@H](CCC(=O)O)NC(=O)[C@@H](NC(=O)[C@H](CCC(=O)O)NC(C)=O)[C@@H](C)O)C(=O)N[C@@H](C)C(=O)N[C@@H](Cc1c[nH]c2ccccc12)C(=O)NCC(=O)N1CCC[C@H]1C(=O)N[C@H](C(=O)NCC(=O)N[C@@H](CC(=O)O)C(=O)N1CCC[C@H]1C(=O)N[C@@H](CC(=O)O)C(N)=O)[C@@H](C)O (Ac-ETEFIAWGPTGDPD-NH2) — within 1.5-fold, 34 ± 2 nM
- CC[C@H](C)[C@H](NC(=O)[C@H](Cc1ccccc1)NC(=O)[C@H](CCC(=O)O)NC(=O)[C@@H](NC(=O)[C@H](CCC(=O)O)NC(C)=O)[C@@H](C)O)C(=O)N[C@@H](C)C(=O)N[C@@H](Cc1c[nH]c2ccccc12)C(=O)NCC(=O)N1CCC[C@H]1C(=O)N[C@H](C(=O)NCC(=O)N[C@@H](CC(=O)O)C(=O)N[C@@H](CCCNC(=N)N)C(=O)N[C@@H](CC(=O)O)C(N)=O)[C@@H](C)O (Ac-ETEFIAWGPTGDRD-NH2) — within 1.5-fold, 54 ± 2 nM
- CC[C@H](C)[C@H](NC(=O)[C@H](Cc1ccccc1)NC(=O)[C@H](CCC(=O)O)NC(=O)[C@@H](NC(=O)[C@H](CCC(=O)O)NC(C)=O)[C@@H](C)O)C(=O)N[C@@H](C)C(=O)N[C@@H](Cc1c[nH]c2ccccc12)C(=O)NCC(=O)N1CCC[C@H]1C(=O)N[C@H](C(=O)NCC(=O)N[C@@H](CC(=O)O)C(=O)N[C@@H](Cc1c[nH]c2ccccc12)C(=O)N[C@@H](CC(=O)O)C(N)=O)[C@@H](C)O (Ac-ETEFIAWGPTGDWD-NH2) — within 1.5-fold, 54 ± 1 nM
- CC[C@H](C)[C@H](NC(=O)[C@H](Cc1ccccc1)NC(=O)[C@H](CCC(=O)O)NC(=O)[C@@H](NC(=O)[C@H](CCC(=O)O)NC(C)=O)[C@@H](C)O)C(=O)N[C@@H](C)C(=O)N[C@@H](Cc1c[nH]c2ccccc12)C(=O)NCC(=O)N1CCC[C@H]1C(=O)N[C@H](C(=O)NCC(=O)N[C@@H](CC(=O)O)C(=O)N[C@@H](Cc1ccc(O)cc1)C(=O)N[C@@H](CC(=O)O)C(N)=O)[C@@H](C)O (Ac-ETEFIAWGPTGDYD-NH2) — within error, 40 ± 1 nM

Source: patent US20260193293A1, “PEPTIDES CAPABLE OF INHIBITING PROTEIN-PROTEIN INTERACTIONS AT GABAB1A SUBUNIT AND USES THEREOF” (UNIVERSITY OF COPENHAGEN, priority 2022, published 2026)
